Laboratory results: ChEMBL document CHEMBL6109062, “Novel tertiary diarylethylamines as functionally selective agonists of the kappa opioid receptor” (Bioorg Med Chem Lett, 2025)

What was measured:
[1] = in vitro; details: human, liver microsomes
[2] = in vitro; details: human, hepatocytes
[3] = in vitro; details: rat, liver microsomes
[4] = Clearance in rat; assay type: ADME; details: in vivo
[5] = in vivo; details: rat, po
[6] = in vitro; details: dog, MDCK-MDR1
[7] = in vivo; details: rat, po, 10 mg/kg
[8] = in vivo; details: rat, po, 10 mg/kg; remark: listed apart in the source
[9] = in vitro; details: rat, liver microsomes; remark: listed apart in the source

Compound | remaining at 0.25 h [1] [%] | hepatocyte CLint [2] [µL/min/1e6 cells] | remaining at 0.25 h [3] [%] | clearance [4] [mL/min/kg] | bioavailability [5] [%] | Papp A→B [6] [×10⁻⁶ cm/s] | bioavailability [7] [%] | half-life [8] [h] | remaining at 0.5 h [9] [%]
Oc1cccc(CCN(CCc2ccccc2)CC2CCC2)c1 | < 5 |  |  |  |  |  |  |  | 
CC(Cc1ccc2nc[nH]c2c1)N(CCc1ccccc1)CC1CC1 (stereo unspecified) | 70 | 22.1 | 10 |  |  |  |  |  | 
O=c1[nH]c2ccc(CCN(CCc3ccccc3)CC3CCC3)cc2[nH]1 | 66 |  | < 5 |  |  |  |  |  | 
Oc1cccc(CCN(CC2CCC2)C2CN(Cc3ccccc3)C2)c1 | < 5 |  |  | 45 | < 1 |  |  |  | 
c1ccc(CCN(CCc2ccc3nc[nH]c3c2)CC2CC2)cc1 | 77 | 16.7 | < 5 |  |  | 5.5 | 2.7 | 1.2 | 3
